Each structure is given as a SMILES string. Inconclusive results and toxic doses are left out.

This assay concerns CD2F1 mice, ip Colon 26 adenocarcinoma, median survival T/C. The assay can be described thus: NCI In Vivo Anticancer Drug Screen. Data for tumor model Colon 26 Adenocarcinoma (intraperitoneal) in CD2F1 (CDF1) mice. As to conditions: endpoint: median survival time, higher = longer survival. The method, then: The antitumor activity of compounds was measured in mice bearing transplantable tumors. Survival or tumor size were measured and the results are expressed as the measurement made in the treated group (T) divided by the measurement made in the vehicle treated control group (C). The tumor model used in this assay is Colon 26 Adenocarcinoma (intraperitoneal) in CD2F1 (CDF1) mice

As to `CC(=O)[C@]1(O)Cc2c(O)c3c(c(O)c2[C@@H](OC2CC(N)C(O)C(C)O2)C1)C(=O)c1c(O)cccc1C3=O` (stereo partly specified), the T/C (dose: 0.7 mg/kg/injection, schedule: Q07DX003 (iv), vehicle: water) is 106 % of control; the T/C (dose: 1.1 mg/kg/injection, schedule: Q07DX003 (iv), vehicle: water) is 124 % of control; the T/C (dose: 1.8 mg/kg/injection, schedule: Q07DX002 (iv), vehicle: water) was 157 % of control; the T/C (dose: 1.8 mg/kg/injection, schedule: Q07DX003 (iv), vehicle: water) is 157 % of control; the T/C (dose: 2.8 mg/kg/injection, schedule: Q07DX002 (iv), vehicle: water) was 183 % of control; the T/C (dose: 2.8 mg/kg/injection, schedule: Q07DX003 (iv), vehicle: water) was 187 % of control. Also, the T/C (dose: 4.2 mg/kg/injection, schedule: Q07DX002 (iv), vehicle: water) is 104 % of control and the T/C (dose: 600.0 micrograms/kg/injection, schedule: Q04DX003 (ip), vehicle: water) was 92 % of control.

On to `C=C1C(=O)OC2CC1CCC1(C)OC1CCC(C)=CCCC2(C)O` (stereo unspecified), for which the T/C (dose: 22.5 mg/kg/injection, schedule: Q04DX002 (ip), vehicle: Klucel (hydroxypropylcellulose) (HPC)) is 105 % of control; the T/C (dose: 45.0 mg/kg/injection, schedule: Q04DX002 (ip), vehicle: Klucel (hydroxypropylcellulose) (HPC)) was 97 % of control; the T/C (dose: 90.0 mg/kg/injection, schedule: Q04DX002 (ip), vehicle: Klucel (hydroxypropylcellulose) (HPC)) is 89 % of control.

Values taken from PubChem BioAssay AID210 (DTP/NCI, 2004).
